Measurements published in patent publication US10232002B1, “Oncolytic HSV1 vectors and methods of using the same” (priority 2012, dated 2019).

System: U87ΔEGFR glioma cells

Question: For `Cn1nnc2c(C(N)=O)ncn2c1=O` [TMZ, temozolomide], which EC30 dose is on record?
Answer: Its EC30 dose is 66 µM.
